The numbers were not newly measured in patent US20160038452A1, “Methods for Administering a Depot of Disulfiram” (priority 2014, published 2016), which cites them from elsewhere.

For series [1] the following is noted: deep intramuscular injection, compared with patients on oral disulfiram.

As for `CCN(CC)C(=S)SSC(=S)N(CC)CC` [disulfiram], the “half-life of disulfiram in blood” value is 4 min. Also, the “urinary levels of disulfiram metabolites” value in series [1] was “insignificant”.
